12 molecules from ChEMBL document CHEMBL6078621, “Macrocyclic-based strategy in drug design: From lab to the clinic” (Eur J Med Chem, 2024) can be followed below.

The nature of data set [1]: Oral bioavailability in human. The format is ADME, organism-based. The conditions noted are these: in vivo.
The nature of data set [2]: Solubility of the compound. In kind it is physicochemical.
Another data set can be described thus: in vitro. The conditions noted are these: human, liver microsomes. Background: Liver microsomes are a subcellular fraction often used to study metabolism.
The subject of another data set is Huh-7. The data set can be described thus: Cytotoxicity against human Huh-7 cells assessed as inhibition of cell viability incubated for 24 hrs by MTT assay. The format is functional.
The nature of data set [3]: Intrinsic clearance in human liver microsomes. The format is ADME, Microsome.
Data set [4] is described as follows: Plasma clearance in Sprague-Dawley rat at 1 mg/kg, iv measured upto 24 hrs by LC-MS/MS analysis. In kind it is ADME, organism-based.
The nature of data set [5]: Plasma protein binding in human. The format is ADME, cell-free. Conditions: read-out: PPB.
Data set [6] can be described thus: Clearance in Sprague-Dawley rat at 0.5 mg/kg, iv by LC-MS/MS analysis. The format is ADME, organism-based. The conditions noted are these: in vivo.
Data set [7] in a line: Oral bioavailability in Sprague-Dawley rat at 5 mg/kg by LC-MS/MS analysis. The format is ADME, organism-based. Conditions: in vivo.
A short description of data set [8]: Cmax in human at 8 mg/kg, po. The conditions noted are these: in vivo. The format is ADME, organism-based.
Data set [9] can be described thus: AUC in Sprague-Dawley rat at 2 mg/kg, iv by LC-MS/MS analysis. The format is ADME, organism-based. The conditions noted are these: in vivo.
Data set [10] is described as follows: AUC in Sprague-Dawley rat at 10 mg/kg, po by LC-MS/MS analysis. In kind it is ADME, organism-based. The conditions noted are these: in vivo.
Data set [11] in a line: Microsomal stability in human liver microsomes assessed as intrinsic clearance. The format is ADME, Microsome.
The nature of data set [12]: AUC in Wistar rat. The format is ADME. Conditions: in vivo.
Data set [13] in a line: Half life in dog. The format is ADME, Canis lupus familiaris. The conditions noted are these: in vivo.
Data set [14] in a line: Half life in mouse. The format is ADME, organism-based. Conditions: in vivo.
A short description of data set [15]: Half life in rat. The conditions noted are these: in vivo. The format is ADME.

Molecules are shown by their SMILES. Starred links: 1 amine or outer side, 2 acyl side, 3 side chain; linkers in the order of their positions; H or OH if unused. Positions of bridges follow the written chain, without caps; N, C: chain ends. Non-standard residues stand in square brackets, D forms with d. Residues, ends and D or L forms follow the SMILES beside them. *: point of attachment. Phe(4-Cl) = N[C@@H](Cc1ccc(Cl)cc1)C(=O)O; 2Thi = N[C@@H](Cc1cccs1)C(=O)O; Agmatine = N=C(N)NCCCCN*; X1 = O=C(CCC[*:2])[*:1]; Mpa = O=C(O)CCS; NEt2 = CCN(CC)*

As usually defined, the bioavailability is dose-corrected exposure relative to a reference, in per cent. Higher therefore signals much systemic uptake. In turn, `C[C@@H]1CCC[C@H](n2cnc(-c3cc(Cl)ccc3-n3cc(Cl)nn3)cc2=O)c2cc(ccn2)-c2c(cnn2C(F)F)NC1=O` [MILVEXIAN] had a bioavailability in data set [1] of 18%. By solubility is commonly meant the concentration that dissolves in the medium under given conditions. The low end stands for little dissolved substance, the high end for much dissolved substance. One may read the half-life as how long it takes for the measured level to halve. Low values mean rapid decline, high ones slow decline. In data set [2], `C1=C/COCc2cc(ccc2OCCN2CCCC2)Nc2nccc(n2)-c2cccc(c2)COC/1` [PACRITINIB] returned a solubility of over 150 µg/mL. The same molecule registered a half-life in “in vitro” of over 60 min. For orientation: CC50 means the concentration that lowers cell viability or growth by half. By clearance is commonly meant the rate of elimination divided by the concentration. Consider `COc1ccc2c(O[C@@H]3C[C@H]4C(=O)N[C@]5(C(=O)NS(=O)(=O)C6CC6)C[C@H]5/C=C\CCCCN(C)C(=O)[C@@H]4C3)cc(-c3ccccc3)nc2c1`, for which, in the data set with Huh-7, the CC50 was over 20 µM. The same molecule showed a CLH in data set [3] of 46 µL/min/mg. The molecule further had a clearance in [4] of 46.5 mL/min/kg. For the molecule `CN1C/C=C/CCOc2cccc(c2)-c2ccnc(n2)Nc2cccc(c2)C1` [ZOTIRACICLIB], the fraction unbound in data set [5] turned out to be 0.001.

For `CC(C)[C@@H]1NC(=O)[C@H](Cc2cccs2)NC(=O)[C@H](Cc2ccc(Cl)cc2)NC(=O)CCCSC[C@@H](C(=O)N2CCC[C@H]2C(=O)NCCCCNC(=N)N)NC(=O)[C@H](CC(N)=O)NC1=O` ([Phe(4-Cl)][2Thi]VNCP-Agmatine; linker N-5 via X1), in data set [6], the clearance is 14 mL/min/kg. On the same count and under the same terms, the result for `CCN(CC)C(=O)[C@@H](CCCNC(=N)N)NC(=O)[C@@H]1CCCN1C(=O)[C@@H]1CSCCCC(=O)N[C@@H](Cc2ccc(Cl)cc2)C(=O)N[C@@H](Cc2cccs2)C(=O)N[C@@H](C(C)C)C(=O)N[C@@H](CC(N)=O)C(=O)N1` ([Phe(4-Cl)][2Thi]VNCP[dR]-NEt2; linker N-5 via X1) reads 42 mL/min/kg. In data set [7], `NC(=O)CC[C@@H]1NC(=O)[C@H](Cc2ccccc2)NC(=O)[C@H](Cc2ccc(O)cc2)NC(=O)CCSSC[C@@H](C(=O)N2CCC[C@H]2C(=O)N[C@H](CCCN=C(N)N)C(=O)NCC(N)=O)NC(=O)[C@H](CC(N)=O)NC1=O` [DESMOPRESSIN] displayed a bioavailability of 41%. By Cmax is commonly meant the highest concentration seen after dosing. For `C[C@@H]1CN[C@@H](C2CC2)C(=O)N(C)[C@H](C)C(=O)N[C@H](Cc2ccc(F)cc2)C(=O)NCCCc2ccccc2O1` [ULIMORELIN], in [8], the Cmax was determined as 1400 nM. In the case of `CC(C)[C@@H]1NC(=O)[C@H](Cc2ccccc2)NC(=O)[C@H](Cc2ccc(O)cc2)NC(=O)CCSSC[C@@H](C(=O)N2CCC[C@H]2C(=O)N[C@H](CCCNC(=N)N)C(=O)NCC(N)=O)NC(=O)[C@H](CC(N)=O)NC1=O` ([Mpa]YFVNCP[dR]G-NH2; disulfide 1-6), the clearance in [6] stood at 9.6 mL/min/kg. In [7], the bioavailability was found to be 31%. Broadly, the AUC is the area under the concentration-time curve, a measure of exposure. Higher therefore signals more exposure. As for `COc1ccc2c(O[C@@H]3C[C@H]4C(=O)N[C@]5(C(=O)NS(=O)(=O)C6CC6)C[C@H]5/C=C\CCCCN(C)C(=O)[C@@H]4C3)cc(-c3nc(C(C)C)cs3)nc2c1C`, the figures for the exposure (AUC) in data set [9] and in data set [10] were 5.21 µM·h and 2.79 µM·h, respectively. The CLH in data set [11] turned out to be 6 µL/min/mg. Take `C[C@H]1Oc2cc(cnc2N)-c2c(nn(C)c2C#N)CN(C)C(=O)c2ccc(F)cc21` [LORLATINIB]: in data set [12], the area under the curve (AUC) amounted to 3.48 µM·h. As for `C/C1=C/C=C/[C@H](C)[C@H](O)[C@@H](C)[C@@H](O)[C@@H](C)[C@H](OC(=O)O)[C@H](C)[C@@H](OO)/C=C/O[C@@]2(C)Oc3c(C)c(O)c4c(O)c(c(/C=N/N5CCC(N(C)C6([C@@H]7CCN(c8cc9c(C%10CC%10)cc(C(=O)O)c(=O)n9cc8F)C7)CC6)CC5)c(O)c4c3C2=O)CC1=O`, the half-life in data set [13] is 96 min; in data set [14], 24 min; in data set [15] it was 24 min.
